System: antibody 2D12.5
Experiment: competitive immunoassay (ELISA) of metal-DOTA complexes against immobilized Y-DOTA
Format: binding, murine
Conditions: 37° C.; DOTA analog [S]-2-(p-nitrobenzyl)-DOTA
From the text: FIG. 13 is graphical display showing the relative binding of metal-DOTA complexes to antibody 2D12.5. A representative set of competitive binding curves obtained from ELISA experiments described in Example 3 below. Error bars (representing the standard error of the mean) are shown, but are generally smaller than the data points.
Elements plotted in the order Sc (open circle), Lu, Yb, Tm, Er, Ho, Y (open diamond), Dy, Tb, Gd, Eu, Sm, Nd, Pr, Ce, La. ΔΔG values relative to Y-DOTA, set at 0. Error bars represent standard error of the mean.
To determine the metal selectivity of the antibody 2D12.5, a competitive immunoassays was used to measure the binding constants of multiple metal-DOTA complexes relative to Y^3+-DOTA.
We examined the monoclonal antibody 2D12.5, initially developed to bind specifically to Y-DOTA for targeted radiotherapy (see, e.g., Goodwin et al., i Cancer Res. 54: 5937-5946 (1994)), in order to determine the scope of its activity. To assess the metal selectivity of antibody 2D12.5, a competitive immunoassay to measure the binding constants of various metal-DOTA complexes relative to the original Y^3+ complex was developed (FIG. 12). Briefly, 2D12.5 was incubated at 37° C. in the presence of immobilized Y-DOTA and a soluble metal-DOTA competitor. […] Binding was measured by standard methods known to those of skill in the art. […]

O=C([O-])CN1CCN(CC(=O)[O-])CCN(CC(=O)[O-])C(Cc2ccc([N+](=O)[O-])cc2)CN(CC(=O)[O-])CC1.[Tb+3] (stereo not shown) [Tb-DOTA] was tested, and the “binding strength relative to the original Y^3+ complex (in words)” value was “strongest binders”.

Reference: patent US7528235B2, “Multi-functional antibodies” (The Regents of the Univarsity of California, priority 2003, dated 2009)
